Reference: patent publication US20230085307A1, “PYRIDAZINONE COMPOUND AND HERBICIDE” (NISSAN CHEMICAL CORPORATION, priority 2019, published 2023)

How the values were obtained:
chickweed [1] = assay: Test Example 4: herbicidal effect by soil treatment (Table 19, symbol P); assay type: in vivo, common chickweed (Stellaria media); details: amount of applied herbicide 320 g/ha
How it was run: (§1)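 Soil-surface application: an emulsion agent diluted with water to the predetermined dose is sprayed uniformly over seeds lying under roughly 1.5 cm of sterilized diluvial soil. Boxes stay in a greenhouse at 25° C. to 30° C. Three weeks later, each species is graded on previously defined criteria.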

rice flat sedge = assay: Test Example 3: herbicidal effect by foliage application, Wagner pot (Table 18, symbol E); assay type: in vivo, rice flat sedge (Cyperus iria); details: amount of applied herbicide 320 g/ha
How it was run: (§2)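 Plants were sown in alluvial soil held under 0.1–0.5 cm standing water and grown 14 days in a greenhouse at 25–30 °C. An emulsifiable formulation, water-diluted to the set dose, was then sprayed onto the foliage, and effects were scored three weeks later using previously defined criteria.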

windgrass [2] = assay: Test Example 4: herbicidal effect by soil treatment (Table 19, symbol L); assay type: in vivo, windgrass (Apera spica-venti); details: amount of applied herbicide 320 g/ha
How it was run: as §1

velvetleaf [3] = assay: Test Example 4: herbicidal effect by soil treatment (Table 19, symbol M); assay type: in vivo, velvetleaf (Abutilon theophrasti); details: amount of applied herbicide 320 g/ha
How it was run: as §1

green foxtail [4] = assay: Test Example 4: herbicidal effect by soil treatment (Table 19, symbol G); assay type: in vivo, green foxtail (Setaria viridis); details: amount of applied herbicide 320 g/ha
How it was run: as §1

wild oat [5] = assay: Test Example 4: herbicidal effect by soil treatment (Table 19, symbol I); assay type: in vivo, wild oat (Avena fatua); details: amount of applied herbicide 320 g/ha
How it was run: as §1

southern crabgrass [6] = assay: Test Example 5: herbicidal effect by foliage application, plastic box (Table 20, symbol F); assay type: in vivo, southern crabgrass (Digitaria ciliaris); details: foliage application, 320 g/ha, evaluated three weeks after application
How it was run: (§3)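 Sow seeds spot-wise in sterilized diluvial soil; cover with ~1.5 cm soil. Grow 14 days in greenhouse, 25° C. to 30° C. Spray foliage with emulsion diluted to predetermined amount. Rate effect after 3 weeks.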

redroot pigweed [7] = assay: Test Example 5: herbicidal effect by foliage application, plastic box (Table 20, symbol N); assay type: in vivo, redroot pigweed (Amaranthus retroflexus); details: foliage application, 320 g/ha, evaluated three weeks after application
How it was run: as §3

blackgrass [8] = assay: Test Example 4: herbicidal effect by soil treatment (Table 19, symbol J); assay type: in vivo, blackgrass (Alopecurus myosuroides); details: amount of applied herbicide 320 g/ha
How it was run: as §1

lambsquarters [9] = assay: Test Example 4: herbicidal effect by soil treatment (Table 19, symbol O); assay type: in vivo, lambsquarters (Chenopodium album); details: amount of applied herbicide 320 g/ha
How it was run: as §1

wild oat [10] = assay: Test Example 5: herbicidal effect by foliage application, plastic box (Table 20, symbol I); assay type: in vivo, wild oat (Avena fatua); details: foliage application, 320 g/ha, evaluated three weeks after application
How it was run: as §3

barnyard grass [11] = assay: Test Example 5: herbicidal effect by foliage application, plastic box (Table 20, symbol H); assay type: in vivo, barnyard grass (Echinochloa crus-galli); details: foliage application, 320 g/ha, evaluated three weeks after application
How it was run: as §3

green foxtail [12] = assay: Test Example 5: herbicidal effect by foliage application, plastic box (Table 20, symbol G); assay type: in vivo, green foxtail (Setaria viridis); details: foliage application, 320 g/ha, evaluated three weeks after application
How it was run: as §3

redroot pigweed [13] = assay: Test Example 4: herbicidal effect by soil treatment (Table 19, symbol N); assay type: in vivo, redroot pigweed (Amaranthus retroflexus); details: amount of applied herbicide 320 g/ha
How it was run: as §1

persian speedwell [14] = assay: Test Example 4: herbicidal effect by soil treatment (Table 19, symbol R); assay type: in vivo, Persian speedwell (Veronica persica); details: amount of applied herbicide 320 g/ha
How it was run: as §1

Italian ryegrass [15] = assay: Test Example 4: herbicidal effect by soil treatment (Table 19, symbol K); assay type: in vivo, Italian ryegrass (Lolium multiflorum); details: amount of applied herbicide 320 g/ha
How it was run: as §1

false cleavers [16] = assay: Test Example 4: herbicidal effect by soil treatment (Table 19, symbol Q); assay type: in vivo, false cleavers (Galium spurium); details: amount of applied herbicide 320 g/ha
How it was run: as §1

lambsquarters [17] = assay: Test Example 5: herbicidal effect by foliage application, plastic box (Table 20, symbol O); assay type: in vivo, lambsquarters (Chenopodium album); details: foliage application, 320 g/ha, evaluated three weeks after application
How it was run: as §3

barnyard grass [18] = assay: Test Example 3: herbicidal effect by foliage application, Wagner pot (Table 18, symbol H); assay type: in vivo, barnyard grass (Echinochloa crus-galli); details: amount of applied herbicide 320 g/ha
How it was run: as §2

southern crabgrass [19] = assay: Test Example 4: herbicidal effect by soil treatment (Table 19, symbol F); assay type: in vivo, southern crabgrass (Digitaria ciliaris); details: amount of applied herbicide 320 g/ha
How it was run: as §1

false cleavers [20] = assay: Test Example 5: herbicidal effect by foliage application, plastic box (Table 20, symbol Q); assay type: in vivo, false cleavers (Galium spurium); details: foliage application, 320 g/ha, evaluated three weeks after application
How it was run: as §3

barnyard grass [21] = assay: Test Example 4: herbicidal effect by soil treatment (Table 19, symbol H); assay type: in vivo, barnyard grass (Echinochloa crus-galli); details: amount of applied herbicide 320 g/ha
How it was run: as §1

chickweed [22] = assay: Test Example 5: herbicidal effect by foliage application, plastic box (Table 20, symbol P); assay type: in vivo, common chickweed (Stellaria media); details: foliage application, 320 g/ha, evaluated three weeks after application
How it was run: as §3

velvetleaf [23] = assay: Test Example 5: herbicidal effect by foliage application, plastic box (Table 20, symbol M); assay type: in vivo, velvetleaf (Abutilon theophrasti); details: foliage application, 320 g/ha, evaluated three weeks after application
How it was run: as §3

Italian ryegrass [24] = assay: Test Example 5: herbicidal effect by foliage application, plastic box (Table 20, symbol K); assay type: in vivo, Italian ryegrass (Lolium multiflorum); details: foliage application, 320 g/ha, evaluated three weeks after application
How it was run: as §3

Chinese sprangletop = assay: Test Example 3: herbicidal effect by foliage application, Wagner pot (Table 18, symbol D); assay type: in vivo, chinese sprangletop (Leptochloa chinensis); details: amount of applied herbicide 320 g/ha
How it was run: as §2

windgrass [25] = assay: Test Example 5: herbicidal effect by foliage application, plastic box (Table 20, symbol L); assay type: in vivo, windgrass (Apera spica-venti); details: foliage application, 320 g/ha, evaluated three weeks after application
How it was run: as §3

blackgrass [26] = assay: Test Example 5: herbicidal effect by foliage application, plastic box (Table 20, symbol J); assay type: in vivo, blackgrass (Alopecurus myosuroides); details: foliage application, 320 g/ha, evaluated three weeks after application
How it was run: as §3

persian speedwell [27] = assay: Test Example 5: herbicidal effect by foliage application, plastic box (Table 20, symbol R); assay type: in vivo, Persian speedwell (Veronica persica); details: foliage application, 320 g/ha, evaluated three weeks after application
How it was run: as §3

## Cc1nn(C)c(=O)c(-c2c(-c3ccc4c(c3)OCCO4)sc3ccc(Cl)cc23)c1O [2-127]
Chickweed [1]
  P: chickweed, herbicidal effect rating: 3 (Herbicidal rate of 40% or more and less than 70%)
Rice flat sedge
  herbicidal effect on E: rice flat sedge: 5 (Herbicidal rate of 90% or more (almost completely withered))
Windgrass [2]
  L: windgrass, herbicidal effect rating: 0 (Herbicidal rate of 5% or less (almost no effect))
Velvetleaf [3]
  M: velvetleaf, herbicidal effect rating: 4 (Herbicidal rate of 70% or more and less than 90%)
Green foxtail [4]
  G: green foxtail, herbicidal effect rating: 0 (Herbicidal rate of 5% or less (almost no effect))
Wild oat [5]
  I: wild oat, herbicidal effect rating: 0 (Herbicidal rate of 5% or less (almost no effect))
Southern crabgrass [6]
  herbicidal effect on F: southern crabgrass: 0 (Herbicidal rate of 5% or less (almost no effect))
Redroot pigweed [7]
  herbicidal effect on N: redroot pigweed: 3 (Herbicidal rate of 40% or more and less than 70%)
Blackgrass [8]
  J: blackgrass, herbicidal effect rating: 0 (Herbicidal rate of 5% or less (almost no effect))
Lambsquarters [9]
  O: lambsquarters, herbicidal effect rating: 4 (Herbicidal rate of 70% or more and less than 90%)
Wild oat [10]
  herbicidal effect on I: wild oat: 0 (Herbicidal rate of 5% or less (almost no effect))
Barnyard grass [11]
  herbicidal effect on H: barnyard grass: 1 (Herbicidal rate of 5% or more and less than 20%)
Green foxtail [12]
  herbicidal effect on G: green foxtail: 0 (Herbicidal rate of 5% or less (almost no effect))
Redroot pigweed [13]
  N: redroot pigweed, herbicidal effect rating: 0 (Herbicidal rate of 5% or less (almost no effect))
Persian speedwell [14]
  R: persian speedwell, herbicidal effect rating: 5 (Herbicidal rate of 90% or more (almost completely withered))
Italian ryegrass [15]
  K: Italian ryegrass, herbicidal effect rating: 0 (Herbicidal rate of 5% or less (almost no effect))
False cleavers [16]
  Q: false cleavers, herbicidal effect rating: 0 (Herbicidal rate of 5% or less (almost no effect))
Lambsquarters [17]
  herbicidal effect on O: lambsquarters: 3 (Herbicidal rate of 40% or more and less than 70%)
Barnyard grass [18]
  herbicidal effect on H: barnyard grass: 3 (Herbicidal rate of 40% or more and less than 70%)
Southern crabgrass [19]
  F: southern crabgrass, herbicidal effect rating: 0 (Herbicidal rate of 5% or less (almost no effect))
False cleavers [20]
  herbicidal effect on Q: false cleavers: 0 (Herbicidal rate of 5% or less (almost no effect))
Barnyard grass [21]
  H: barnyard grass, herbicidal effect rating: 0 (Herbicidal rate of 5% or less (almost no effect))
Chickweed [22]
  herbicidal effect on P: chickweed: 5 (Herbicidal rate of 90% or more (almost completely withered))
Velvetleaf [23]
  herbicidal effect on M: velvetleaf: 4 (Herbicidal rate of 70% or more and less than 90%)
Italian ryegrass [24]
  herbicidal effect on K: Italian ryegrass: 0 (Herbicidal rate of 5% or less (almost no effect))
Chinese sprangletop
  herbicidal effect on D: Chinese sprangletop: 0 (Herbicidal rate of 5% or less (almost no effect))
Windgrass [25]
  herbicidal effect on L: windgrass: 0 (Herbicidal rate of 5% or less (almost no effect))
Blackgrass [26]
  herbicidal effect on J: blackgrass: 0 (Herbicidal rate of 5% or less (almost no effect))
Persian speedwell [27]
  herbicidal effect on R: persian speedwell: 5 (Herbicidal rate of 90% or more (almost completely withered))

## CCCC(=O)Oc1c(C)nn(C)c(=O)c1-c1c(-c2cc(F)ccc2OC)sc2ccc(C)cc12 [2-151]
Chickweed [1]
  P: chickweed, herbicidal effect rating: 1 (Herbicidal rate of 5% or more and less than 20%)
Rice flat sedge
  herbicidal effect on E: rice flat sedge: 3 (Herbicidal rate of 40% or more and less than 70%)
Windgrass [2]
  L: windgrass, herbicidal effect rating: 0 (Herbicidal rate of 5% or less (almost no effect))
Velvetleaf [3]
  M: velvetleaf, herbicidal effect rating: 0 (Herbicidal rate of 5% or less (almost no effect))
Green foxtail [4]
  G: green foxtail, herbicidal effect rating: 0 (Herbicidal rate of 5% or less (almost no effect))
Wild oat [5]
  I: wild oat, herbicidal effect rating: 0 (Herbicidal rate of 5% or less (almost no effect))
Southern crabgrass [6]
  herbicidal effect on F: southern crabgrass (criteria 0-5): 0 (Herbicidal rate of 5% or less (almost no effect))
Redroot pigweed [7]
  herbicidal effect on N: redroot pigweed (criteria 0-5): 3 (Herbicidal rate of 40% or more and less than 70%)
Blackgrass [8]
  J: blackgrass, herbicidal effect rating: 0 (Herbicidal rate of 5% or less (almost no effect))
Lambsquarters [9]
  O: lambsquarters, herbicidal effect rating: 4 (Herbicidal rate of 70% or more and less than 90%)
Wild oat [10]
  herbicidal effect on I: wild oat (criteria 0-5): 0 (Herbicidal rate of 5% or less (almost no effect))
Barnyard grass [11]
  herbicidal effect on H: barnyard grass (criteria 0-5): 0 (Herbicidal rate of 5% or less (almost no effect))
Green foxtail [12]
  herbicidal effect on G: green foxtail (criteria 0-5): 0 (Herbicidal rate of 5% or less (almost no effect))
Redroot pigweed [13]
  N: redroot pigweed, herbicidal effect rating: 4 (Herbicidal rate of 70% or more and less than 90%)
Persian speedwell [14]
  R: persian speedwell, herbicidal effect rating: 3 (Herbicidal rate of 40% or more and less than 70%)
Italian ryegrass [15]
  K: Italian ryegrass, herbicidal effect rating: 0 (Herbicidal rate of 5% or less (almost no effect))
False cleavers [16]
  Q: false cleavers, herbicidal effect rating: 0 (Herbicidal rate of 5% or less (almost no effect))
Lambsquarters [17]
  herbicidal effect on O: lambsquarters (criteria 0-5): 2 (Herbicidal rate of 20% or more and less than 40%)
Barnyard grass [18]
  herbicidal effect on H: barnyard grass: 3 (Herbicidal rate of 40% or more and less than 70%)
Southern crabgrass [19]
  F: southern crabgrass, herbicidal effect rating: 0 (Herbicidal rate of 5% or less (almost no effect))
False cleavers [20]
  herbicidal effect on Q: false cleavers (criteria 0-5): 2 (Herbicidal rate of 20% or more and less than 40%)
Barnyard grass [21]
  H: barnyard grass, herbicidal effect rating: 0 (Herbicidal rate of 5% or less (almost no effect))
Chickweed [22]
  herbicidal effect on P: chickweed (criteria 0-5): 4 (Herbicidal rate of 70% or more and less than 90%)
Velvetleaf [23]
  herbicidal effect on M: velvetleaf (criteria 0-5): 1 (Herbicidal rate of 5% or more and less than 20%)
Italian ryegrass [24]
  herbicidal effect on K: Italian ryegrass (criteria 0-5): 0 (Herbicidal rate of 5% or less (almost no effect))
Chinese sprangletop
  herbicidal effect on D: Chinese sprangletop: 0 (Herbicidal rate of 5% or less (almost no effect))
Windgrass [25]
  herbicidal effect on L: windgrass (criteria 0-5): 0 (Herbicidal rate of 5% or less (almost no effect))
Blackgrass [26]
  herbicidal effect on J: blackgrass (criteria 0-5): 0 (Herbicidal rate of 5% or less (almost no effect))
Persian speedwell [27]
  herbicidal effect on R: persian speedwell (criteria 0-5): 4 (Herbicidal rate of 70% or more and less than 90%)
